According to US6740305B1, “Assessment of gastric emptying disorders” (Xanthus Life Scienes, Inc., priority 1999, dated 2004):

Experiments:
[1] = test system: gastric emptying; assay: Breath test with liquid test meal given with drugs known to accelerate or delay gastric emptying (FIG. 6); type: in vivo, human; conditions: [acyl]^13C-leucine as emptying probe
Description: In FIG. 6 summarizing this experiment, metoclopramide is shown as a prokinetic agent. Similarly, loperamide is shown to delay emptying.

[2] = parameters: species or system human; conditions: in vivo, 1.5 mg/kg
Description: In accordance with the present invention, the solid food to be checked and swallowed as the meal for a gastric emptying test is in the form of an edible, egg fortified muffin from a microwaveable recipe, freshly prepared prior to use. The base formulation consists of a bulk mix containing 92 grams of powdered, defatted milk; 320 grams of apple flavored instant muffin mix, 80 grams of finely grated Parmesan cheese and 0.6 gram of pulverized L-2-oxo[^13C]thiazolidine-4-carboxylic acid (OTZ) tracer probe. The mixture is homogenized in a food mill and stored in individual portions of 61.625 grams. Prior to cooking, the individual muffin mix is reconstituted in a microwaveable plastic dish with 110 ml of water and 61 grams of defatted egg substitute and then thoroughly blended and allowed to stand covered for 0.5 hour at room temperature. After shaking well, the mixture is uncovered and microwaved in a 500 watt oven for 4 minutes at medium power, rotated 120 degrees, and again microwaved for 4 minutes. The muffin is loosened around the edges, allowed to cool, and removed from the cooking container. […]
The samples are analyzed for isotopic content and corrected for interindividual differences in endogenous CO2 production rate in order to obtain the appropriate data points. […]

Absorption kinetics from appearance pattern of ^13CO2 in breath [2]	T1/2 (half-emptying time) [2]	Structure (SMILES)	Effect on gastric emptying [1]
		CCN(CC)CCNC(=O)c1cc(Cl)c(N)cc1OC [Metoclopramide, metoclopramide]	accelarated the gastric emptying profile in a statistically significant manner
zero-order absorption kinetics	19 +/− 4	O=C(O)[C@@H]1CS[13C](=O)N1 [2-[^13C -OTZ, L-2-oxo[^13C]thiazolidine-4-carboxylic acid]	
		CN(C)C(=O)C(CCN1CCC(O)(c2ccc(Cl)cc2)CC1)(c1ccccc1)c1ccccc1 [loperamide]	emptying times trending toward greater than normal half-emptying values
